Non-standard residues stand in square brackets, D forms with d. Residues, ends and D or L forms follow the SMILES beside them. No end group written: not given here.
Experiments:
Klotho β (KLB) = molecular target: T1, Klotho β (KLB) (Homo sapiens, UniProt Q86Z14); assay: cell-based; format: cell-based; conditions: for Emax: Table 1, native sequence = 100% response, read-out: % max activity
T1 construct: expressed in transfected cells; host or cells: HEK 293T (ATCC), pooled Zeocin-selected cells stably expressing hKLB from pcDNA3.1(+)
T1 sequence (Q86Z14 1-1044): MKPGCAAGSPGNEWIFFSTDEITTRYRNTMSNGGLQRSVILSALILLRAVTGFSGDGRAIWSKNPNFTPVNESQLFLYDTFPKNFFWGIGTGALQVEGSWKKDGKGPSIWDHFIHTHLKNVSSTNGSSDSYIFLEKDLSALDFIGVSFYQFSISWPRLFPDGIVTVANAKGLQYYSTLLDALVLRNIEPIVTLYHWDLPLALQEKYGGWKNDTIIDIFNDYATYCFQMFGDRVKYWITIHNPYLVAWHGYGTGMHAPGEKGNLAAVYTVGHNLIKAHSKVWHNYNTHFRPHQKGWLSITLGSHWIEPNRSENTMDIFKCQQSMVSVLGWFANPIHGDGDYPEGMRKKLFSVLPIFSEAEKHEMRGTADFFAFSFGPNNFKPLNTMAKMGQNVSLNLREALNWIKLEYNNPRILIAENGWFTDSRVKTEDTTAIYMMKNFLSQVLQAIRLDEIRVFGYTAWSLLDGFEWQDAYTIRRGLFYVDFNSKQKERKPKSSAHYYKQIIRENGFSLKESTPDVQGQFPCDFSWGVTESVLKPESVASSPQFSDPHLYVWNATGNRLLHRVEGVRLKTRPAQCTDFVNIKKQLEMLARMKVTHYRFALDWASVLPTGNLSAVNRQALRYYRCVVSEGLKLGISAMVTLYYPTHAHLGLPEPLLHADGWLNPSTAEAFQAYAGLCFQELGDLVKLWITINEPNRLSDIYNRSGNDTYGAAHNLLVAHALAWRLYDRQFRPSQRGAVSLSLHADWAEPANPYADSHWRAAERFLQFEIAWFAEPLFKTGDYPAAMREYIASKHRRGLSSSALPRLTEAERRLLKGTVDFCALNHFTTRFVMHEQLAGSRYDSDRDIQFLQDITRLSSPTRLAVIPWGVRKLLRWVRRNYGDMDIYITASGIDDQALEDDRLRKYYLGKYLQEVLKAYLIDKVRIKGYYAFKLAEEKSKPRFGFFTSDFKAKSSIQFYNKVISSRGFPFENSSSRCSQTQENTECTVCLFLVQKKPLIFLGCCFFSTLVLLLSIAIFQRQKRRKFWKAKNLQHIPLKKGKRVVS
Procedure: (§1) Cells were cultured in 10% Fetal Bovine Serum containing DMEM High glucose GLUTAMAX® at 37 C, 95% humidity, 5% CO2. For generating the cell line with stable expression, human KLB gene was synthesized by Genscript and subcloned into pcDNA3.1(+) with ZEOCIN® resistance vector (INVITROGEN®) by NheI and NotI restriction enzyme sites. HEK 293T cells were obtained from ATCC and were transiently transfected at 80% confluency using Lipofectamine 3000 (Invitrogen). Selection for KLB-expressing cells was initiated 48 hours post-transfection in the growth media containing 100 μg/ml of ZEOCIN® (Gibco) and continued for 4 weeks with fresh media added every third day. Human KLB expression in pooled cells was confirmed by Western blot and a functional FGF21 MAPK phosphorylation assay.
(§2) 293 HEK cells expressing hKLB were plated to 90% confluency in 96 well plates coated with poly-D-Lysine. Cells were serum starved for three hours in 0.1% BSA containing media prior to stimulation with protein and/or an antagonist peptide for ten minutes at 37° C. The cell lysate was used for the detection of phospho-Erk1/2 levels by AlphaSureFire kit using the prescribed protocol. The degree of biochemical activation was recorded and analyzed using Origin software by logistic curve fitting. Tests at each concentration were done in triplicates, and the standard deviation is as shown in the graphs. The calculation of maximal activities was done keeping the FGF21 157-181 or FGF19 169-194 peptide activity as standard. The difference between the Erk1/2 phosphorylation signal for the highest (10 μM) and the lowest (0 μM) tested dose for native peptide was considered as 100% and accordingly all the other values were assigned.

FGF21 receptor = assay: Erk1/2 phosphorylation assay: agonist activity in 293T HEK hKLB cells; format: cell-based, human; conditions: FIGS. 9A/9B, full length proteins, Erk1/2 phosphorylation
Procedure: as §1, §2

[1] = Table 5, FGF19/FGF21 chimeric peptides
[2] = Table 6, derivatives of SEQ ID NO: 180

## CSCC[C@H](NC(=O)[C@H](CO)NC(=O)[C@H](CC(C)C)NC(=O)[C@@H]1CCCN1C(=O)[C@H](CC(=O)O)NC(=O)[C@H](CO)NC(=O)[C@H](CO)NC(=O)CNC(=O)[C@@H](NC(=O)[C@H](CC(=O)O)NC(=O)[C@@H]1CCCN1C(=O)[C@@H]1CCCN1)C(C)C)C(=O)N[C@H](C(=O)NCC(=O)N1CCC[C@H]1C(=O)N[C@@H](CO)C(=O)N[C@@H](CCC(N)=O)C(=O)NCC(=O)N[C@@H](CCCNC(=N)N)C(=O)N[C@@H](CO)C(=O)N1CCC[C@H]1C(=O)N[C@@H](CO)C(=O)N[C@@H](Cc1ccc(O)cc1)C(=O)N[C@@H](C)C(=O)N[C@H](CO)C(N)=O)C(C)C [d25, PPDVG SSDPL SMVGP SQGRS PSYAs] (H-PPDVGSSDPLSMVGPSQGRSPSYA[dS]-NH2; N-terminus and C-terminus assumed)
Klotho β (KLB); Table 3, D-amino acid scan of FGF21 C-terminal 25mer
  IC50: 264 ± 120 nM

## PPDVGSSDPLSMVGPSQGRSPSYAS-NH2 [Peptide C25, PPDVGSSDPLSMVGPSQGRSPSYAS, reference compound]
Klotho β (KLB)
  % max activity: 100.0%
Klotho β (KLB); FIG. 8B, FGF21 and FGF19 C-terminal peptides
  IC50: 40 nM
Klotho β (KLB); [1]
  IC50: 116 ± 4 nM

## PPDVGSSDPLSMVTGLEAVRSPSFEA-NH2 (C-terminus assumed) [Peptide 0435]
Klotho β (KLB); [1]
  IC50: 65.1 ± 4.8 nM

## PPDVSSMDPFGLVGPSQGRSPSFEA-NH2 (C-terminus assumed) [Peptide 0482]
Klotho β (KLB); [2]
  IC50: 3 ± 1.3 nM

## CSCC[C@H](NC(=O)[C@H](CO)NC(=O)[C@H](CC(C)C)NC(=O)[C@@H]1CCCN1C(=O)[C@H](CC(=O)O)NC(=O)[C@H](CO)NC(=O)[C@H](CO)NC(=O)CNC(=O)[C@@H](NC(=O)[C@H](CC(=O)O)NC(=O)[C@@H]1CCCN1C(=O)[C@@H]1CCCN1)C(C)C)C(=O)N[C@H](C(=O)NCC(=O)N1CCC[C@H]1C(=O)N[C@@H](CO)C(=O)N[C@@H](CCC(N)=O)C(=O)NCC(=O)N[C@H](CCCNC(=N)N)C(=O)N[C@@H](CO)C(=O)N1CCC[C@H]1C(=O)N[C@@H](CO)C(=O)N[C@@H](Cc1ccc(O)cc1)C(=O)N[C@@H](C)C(=O)N[C@@H](CO)C(N)=O)C(C)C [d19, PPDVG SSDPL SMVGP SQGrS PSYAS] (H-PPDVGSSDPLSMVGPSQG[dR]SPSYAS-NH2; N-terminus and C-terminus assumed)
Klotho β (KLB); Table 3, D-amino acid scan, C25 = 100
  % Activity vs C25: 270.70 ± 136.83%
Klotho β (KLB); relative to native C-terminal peptide
  fold increase of antagonistic potency over the native peptide: 2 fold

## FGF21 159-181: 23-amino acid C-terminal fragment of FGF21 (DVGSSDPLSMVGPSQGRSPSYAS; UniProt Q9NSA1 187-209, looked up, fragment) [reference compound]
Klotho β (KLB); 10 nM FGF21 stimulation, 293 HEK hKLB cells
  antagonism of FGF21 activity (in words): weak antagonism

## PLETDSMDPFGLVGPSQGRSPSFEA-NH2 (C-terminus assumed) [Peptide 0430]
Klotho β (KLB); [1]
  IC50: 15.9 ± 1.1 nM

## PPDVGSMDPFGLVGRSQGRSPSFEA-NH2 (C-terminus assumed) [Peptide 0470]
Klotho β (KLB); [2]
  IC50: 4.9 ± 1.1 nM

## PPDVGSADPLSMVGPSQGRSPSYAS-NH2 (C-terminus assumed) [Peptide A7, PPDVGSADPLSMVGPSQGRSPSYAS]
Klotho β (KLB)
  Emax: 94.5%

## PPDVFSMDPFGLVGPSQGRSPSFEA-NH2 (C-terminus assumed) [Peptide 0480]
Klotho β (KLB); [2]
  IC50: 2.6 ± 0.5 nM

## PPDVGSSDPLSMVGPSQGRAPSYAS-NH2 (C-terminus assumed) [Peptide A20, PPDVGSSDPLSMVGPSQGRAPSYAS]
Klotho β (KLB)
  Emax: 73.5%

B1: FGF21 D164A: full length FGF21 with alanine at position 164 (protein)
chain: HPIPDSSPLLQFGGQVRQRYLYTDDAQQTEAHLEIREDGTVGGAADQSPESLLQLKALKPGVIQILGVKTSRFLCQRPDGALYGSLHFDPEACSFRELLLEDGYNVYQSEAHGLPLHLPGNKSPHRDPAPRGPARFLPLPGLPPALPEPPGILAPQPPDVGSSAPLSMVGPSQGRSPSYAS
FGF21 receptor
  EC-50: inactive

Source: patent US11351268B2, “FGF21 C-terminal peptide optimization” (INDIANA UNIVERSITY RESEARCH AND TECHNOLOGY CORPORATION, priority 2016, dated 2022)
